Experimental data taken from the CheMixHub viscosity set.

Test: xn = mol fraction of the nth substance listed

C=CC(=O)OC + CCCCCCCCCC
viscosity [mPa·s], 100 kPa
Settings | x1 = 0.1092 | x1 = 0.2047 | x1 = 0.3019 | x1 = 0.4034 | x1 = 0.5015 | x1 = 0.5969 | x1 = 0.6987 | x1 = 0.7998 | x1 = 0.8966
303.15 K | 0.733 | 0.683 | 0.638 | 0.595 | 0.561 | 0.532 | 0.506 | 0.483 | 0.462
308.15 K | 0.668 | 0.625 | 0.585 | 0.548 | 0.519 | 0.495 | 0.474 | 0.456 | 0.437
313.15 K | 0.644 | 0.604 | 0.566 | 0.53 | 0.501 | 0.478 | 0.457 | 0.438 | 0.42

CC(C)CO + CCCCCCCCCC
viscosity [mPa·s], 100 kPa
Settings | x2 = 0.1004 | x2 = 0.1999 | x2 = 0.3 | x2 = 0.3999 | x2 = 0.5002 | x2 = 0.5996 | x2 = 0.7006 | x2 = 0.8 | x2 = 0.9
293.15 K | 2.872 | 2.191 | 1.749 | 1.456 | 1.254 | 1.117 | 1.024 | 0.966 | 0.933
298.15 K | 2.471 | 1.906 | – | – | 1.131 | – | 0.941 | 0.893 | 0.863
303.15 K | 2.139 | 1.673 | 1.368 | 1.165 | 1.027 | 0.932 | 0.869 | 0.828 | 0.803
308.15 K | 1.863 | 1.476 | 1.221 | 1.051 | 0.937 | 0.857 | 0.806 | 0.771 | 0.75
313.15 K | 1.632 | 1.309 | 1.095 | 0.954 | 0.859 | 0.793 | 0.749 | 0.72 | 0.702
318.15 K | 1.436 | 1.167 | 0.989 | 0.871 | 0.791 | 0.736 | 0.699 | 0.674 | 0.66
323.15 K | 1.272 | 1.046 | 0.897 | 0.798 | 0.732 | 0.686 | 0.654 | 0.634 | 0.622

CCCCCC + CCCCCCCCCC
298.15 K, 101.33 kPa
Settings | viscosity [mPa·s]
x1 = 0.1074 | 0.7809
x1 = 0.2074 | 0.7182
x1 = 0.3029 | 0.6515
x1 = 0.4046 | 0.5846
x1 = 0.5041 | 0.5315
x1 = 0.6061 | 0.4805
x1 = 0.7053 | 0.4337
x1 = 0.8034 | 0.3791
x1 = 0.9036 | 0.3365

C=CC(=O)OC + CCCCCCCCCCCC
viscosity [mPa·s], 100 kPa
Settings | x1 = 0.0959 | x1 = 0.1996 | x1 = 0.3063 | x1 = 0.4005 | x1 = 0.5043 | x1 = 0.603 | x1 = 0.7008 | x1 = 0.8015 | x1 = 0.8993
303.15 K | 1.129 | 1.019 | 0.916 | 0.831 | 0.745 | 0.67 | 0.601 | 0.54 | 0.486
308.15 K | 1.017 | 0.918 | 0.825 | 0.751 | 0.674 | 0.611 | 0.554 | 0.502 | 0.458
313.15 K | 0.963 | 0.867 | 0.779 | 0.709 | 0.638 | 0.58 | 0.528 | 0.478 | 0.438

CC(C)(C)c1ccccc1 + CCCCCCCCCCCC
viscosity [mPa·s], 102 kPa
Settings | x1 = 0.1017 | x1 = 0.2009 | x1 = 0.2995 | x1 = 0.4002 | x1 = 0.5001 | x1 = 0.5979 | x1 = 0.699 | x1 = 0.8 | x1 = 0.9006
293.15 K | 1.43 | 1.37 | 1.32 | 1.27 | 1.22 | 1.18 | 1.16 | 1.14 | 1.13
303.15 K | 1.2 | 1.16 | 1.12 | 1.08 | 1.05 | 1.02 | 0.998 | 0.982 | 0.975
313.15 K | 1.03 | 0.998 | 0.971 | 0.942 | 0.916 | 0.895 | 0.874 | 0.859 | 0.854
323.15 K | 0.9 | 0.872 | 0.846 | 0.825 | 0.804 | 0.787 | 0.77 | 0.758 | 0.752

C=CC(=O)OC + CCCCCCCCCCCCC
viscosity [mPa·s], 100 kPa
Settings | x1 = 0.1018 | x1 = 0.1995 | x1 = 0.3067 | x1 = 0.4044 | x1 = 0.5002 | x1 = 0.6038 | x1 = 0.7058 | x1 = 0.8043 | x1 = 0.9012
303.15 K | 1.375 | 1.235 | 1.091 | 0.974 | 0.868 | 0.765 | 0.673 | 0.593 | 0.513
308.15 K | 1.178 | 1.058 | 0.936 | 0.838 | 0.752 | 0.669 | 0.598 | 0.538 | 0.477
313.15 K | 1.056 | 0.953 | 0.845 | 0.762 | 0.689 | 0.618 | 0.554 | 0.498 | 0.446

CCCCCCCCCCCCc1ccccc1 + CCCCCCCCCCCCCCCC
viscosity [mPa·s], 102 kPa
Settings | x1 = 0.09264 | x1 = 0.1868 | x1 = 0.2826 | x1 = 0.3803 | x1 = 0.4789 | x1 = 0.5793 | x1 = 0.6819 | x1 = 0.786 | x1 = 0.892
293.15 K | 3.55 | 3.67 | 3.82 | 3.99 | 4.16 | 4.36 | 4.59 | 4.85 | 5.14
303.15 K | 2.81 | 2.9 | 3.01 | 3.13 | 3.26 | 3.41 | 3.58 | 3.76 | 3.97
313.15 K | 2.27 | 2.35 | 2.43 | 2.52 | 2.63 | 2.74 | 2.86 | 3 | 3.16
323.15 K | 1.88 | 1.94 | 2.01 | 2.08 | 2.16 | 2.25 | 2.34 | 2.45 | 2.57
